Experimental data reported in US20260294767A1, “USE OF ERGOTHIONEINE IN PROMOTING COLLAGEN GENERATION” (BLOOMAGE BIOTECHNOLOGY CORPORATION LIMITED, priority 2022, published 2026).

Experiments:
[1] = tested on: type III collagen generation in primary human dermal fibroblasts; experiment: Type III collagen generation in primary human dermal fibroblasts, ELISA of culture supernatant; assay type: cell-based; settings: for Relative expression level of type III collagen: N=3, vs blank control 100.00%
Description: A sample solution was prepared by dissolving ergothioneine solid powder in a basic culture medium, and the concentration was adjusted to 0.001 wt %.
When the in vitro cultured fibroblasts reached 80-90% confluence, they were digested with trypsin and inoculated into 96-well plates. After 48 hours of monolayer culture in a 96-well plate, cells were treated with the ergothioneine sample prepared in step (1) (N=3), with a treatment group comprising 100 ng/mL IGF-1 was set as the positive control. After 48 hours, the cell culture supernatant was taken for ELISA assay of type III collagen, and the type III collagen content of the measured sample group was statistically compared with that of the blank control group to evaluate the effect of ergothioneine on the generation of type III collagen.
All results were presented as Mean±SD, and differences in measured data were compared using an unpaired t-test. P-value<0.05 is considered statistically significant.

[2] = tested on: type III collagen generation in human fibroblast (HFF); experiment: Type III collagen content by human collagen III ELISA in human fibroblast (HFF); assay type: cell-based; settings: 0.2 wt % ergothioneine, 72 hours
Description: Human fibroblast (HFF) in logarithmic growth phase were collected, discarding the culture medium, washing them once with PBS, adding 0.25 wt % trypsin, incubating in a cell culture incubator for 1 minute, and then terminating digestion of the culture medium. The culture medium was centrifuged at 1000 rpm for 3 minutes, and the cells were resuspended in complete DMEM medium and counted. Human fibroblast (HFF) were inoculated into 12-well plates at a density of 3×10^5 cells/ml, with 1 ml/well. After incubation in an incubator at 37° C. and 5% CO2 for 24 hours, the culture medium was removed and the cells were washed with PBS.
The cells washed in step 1 were divided into two groups, namely a blank control group and an ergothioneine group, with 3 replicates in each group. Among them, the blank control group: 1 ml of serum-free culture medium; the ergothioneine group: 1 ml of serum-free culture medium containing 0.2 wt % ergothioneine.
After thoroughly mixing, cells in the above groups were placed in an incubator and cultured for another 72 hours.
Phase contrast microscopy was used to observe cell growth, morphology, and integrity of the cell monolayer, and changes in cell morphology and growth were recorded. The content of type III collagen was determined by using the human collagen III ELISA kit.
Type III collagen promotion rate was calculated as: […]

Compound	effect on synthesis of type III collagen in fibroblasts (in words) ([1]; 100 ng/mL IGF-1, 48 hours, P<0.05)	Relative expression level of type III collagen ([1]; positive control 100 ng/mL IGF-1, 48 hours, SD 0.05, P 0.0103) [%]	effect on generation of type III collagen (in words) ([2]; compared with blank control)	activity at 0.2 wt % ([2]; Homo sapiens, Fibroblast, serum-free medium, 3 replicates, vs blank control 100.0 ± 12.3, ** P < 0.01, read-out: Relative expression level of type III collagen (%)) [%]	activation at 0.2 wt % ([2]; Homo sapiens, Fibroblast, serum-free medium, 3 replicates, vs blank control, read-out: Type III collagen promotion rate (%)) [%]	effect on generation of type III collagen (in words) ([1]; ergothioneine 0.001%, 48 hours, P<0.05)	Relative expression level of type III collagen ([1]; ergothioneine 0.001 wt %, 48 hours, SD 0.07, P 0.0360) [%]
IGF-1: 100 ng/mL IGF-1 was set as the positive control	significantly promotes the synthesis of type III collagen in fibroblasts	129.3					
C[N+](C)(C)[C@@H](Cc1c[nH]c(=S)[nH]1)C(=O)[O-] [Ergothioneine, ergothioneine]			can significantly promote the generation of type III collagen	148 ± 20.1	48.3 ± 20.1	significantly promotes the generation of type III collagen	117.8
